Assay results: patent US10807970B2 (priority 2016, dated 2020)
pKi: −log10 of the molar value.

Molecular target: human σ1 receptor (Homo sapiens, UniProt Q99720)
Test: Human σ1 receptor radioligand assay ([3H](+)-pentazocine, transfected HEK-293 membranes)
Type: binding
Parameters: μ and σ1 dual binding: key to the marks not given beside the values
Settings: one class symbol for both Ki-σ1 (human σ1 receptor, A1) and Ki-μ (human μ-opioid receptor, A2)
In short: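 Membranes from HEK-293 cells transfected with human σ1 receptor (7 μg) incubated with 5 nM [3H](+)-pentazocine in 50 mM Tris-HCl pH 8, 120 min at 37° C. Non-specific binding defined with 10 μM haloperidol. Bound radioligand separated by filtration, washed with ice-cold 10 mM Tris-HCl pH 7.4, and counted by scintillation.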

human σ1 receptor, sequence (Q99720 whole entry): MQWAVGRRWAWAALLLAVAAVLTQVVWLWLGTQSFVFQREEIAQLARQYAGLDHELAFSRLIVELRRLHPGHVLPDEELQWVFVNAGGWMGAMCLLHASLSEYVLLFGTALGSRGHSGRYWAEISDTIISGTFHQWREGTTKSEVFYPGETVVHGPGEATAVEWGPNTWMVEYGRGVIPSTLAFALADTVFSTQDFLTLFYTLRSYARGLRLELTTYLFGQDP

| Structure (SMILES) | μ and σ1 dual binding |
| --- | --- |
| CC[C@@]1(N2CCN(Cc3ccccc3)CC2)CCO[C@@H](C)C1 [Example 164, 1-benzyl-4-((2S,4R)-4-ethyl-2-methyltetrahydro-2H-pyran-4-yl)piperazine] | ++ |
| CCC1(C2CCN(Cc3ccccc3)CC2)CCOC(C)(C)C1 (stereo not drawn) [Example 167, 1-Benzyl-4-(4-ethyl-2,2-dimethyltetrahydro-2H-pyran-4-yl)piperidine] | ++ |
| CC(C)CCN1CCN([C@@]2(C(=O)c3ccccn3)CCO[C@@H](C)C2)CC1 [Example 168] | ++ |
| CC(C)CCN1CCC([C@@]2(C(=O)c3ccccn3)CCO[C@@H](C)C2)CC1 [Example 171] | ++ |
| CC(C)OCCN1CCC([C@@]2(C(=O)c3ccccn3)CCO[C@@H](C)C2)CC1 [Example 172] | ++ |
| CCC1(C2CCN(CCc3ccccc3)CC2)CCOC(C)(C)C1 (stereo not drawn) [Example 173, 4-(4-ethyl-2,2-dimethyltetrahydro-2H-pyran-4-yl)-1-phenethylpiperidine] | ++ |
| CCC1(N2CCN(Cc3ccc(C#N)cc3)CC2)CCOCC1 [Example 174, 4-((4-(4-ethyltetrahydro-2H-pyran-4-yl)piperazin-1-yl)methyl)benzonitrile] | ++ |
| CCC1(N2CCN(Cc3ccc(F)cc3)CC2)CCOCC1 [Example 175, 1-(4-ethyltetrahydro-2H-pyran-4-yl)-4-(4-fluorobenzyl)piperazine] | ++ |
| CCC1(N2CCN(CCOC(C)C)CC2)CCOCC1 [Example 176, 1-(4-ethyltetrahydro-2H-pyran-4-yl)-4-(2-isopropoxyethyl)piperazine] | ++ |
| CC(C)CCN1CCN(C2(C(=O)c3ccccn3)CCOCC2)CC1 [Example 177, (4-(4-isopentylpiperazin-1-yl)tetrahydro-2H-pyran-4-yl)(pyridin-2-yl)methanone] | ++ |
| CC(C)CCN1CCN(C2(C)CCOCC2)CC1 [Example 178, 1-isopentyl-4-(4-methyltetrahydro-2H-pyran-4-yl)piperazine] | ++ |
| CCC1(N2CCN(CCC(C)C)CC2)CCOCC1 [Example 180, 1-(4-ethyltetrahydro-2H-pyran-4-yl)-4-isopentylpiperazine] | ++ |
| O=C(c1ccccn1)C1(N2CCN(Cc3ccc(F)cc3)CC2)CCOCC1 [Example 181, (4-(4-(4-fluorobenzyl)piperazin-1-yl)tetrahydro-2H-pyran-4-yl)(pyridin-2-yl)methanone] | ++ |
| CC1(N2CCN(Cc3ccc(F)cc3)CC2)CCOCC1 [Example 182, 1-(4-fluorobenzyl)-4-(4-methyltetrahydro-2H-pyran-4-yl)piperazine] | ++ |
| CC1(N2CCN(Cc3ccc(C#N)cc3)CC2)CCOCC1 [Example 183, 4-((4-(4-methyltetrahydro-2H-pyran-4-yl)piperazin-1-yl)methyl)benzonitrile] | ++ |
| CC(C)OCCN1CCN(C2(C)CCOCC2)CC1 [Example 184, 1-(2-isopropoxyethyl)-4-(4-methyltetrahydro-2H-pyran-4-yl)piperazine] | ++ |
| CC(C)OCCN1CCN(C2(C(=O)c3ccccn3)CCOCC2)CC1 [Example 185, (4-(4-(2-isopropoxyethyl)piperazin-1-yl)tetrahydro-2H-pyran-4-yl)(pyridin-2-yl)methanone] | ++ |

Same assay, conditions: one class symbol for both Ki-σ1 (human σ1 receptor, A1) and Ki-μ (human μ-opioid receptor, A2); read-out: μ and σ1 dual binding

| pKi | Structure (SMILES) |
| --- | --- |
| < 6.30 | CC1(C2CCN(Cc3ccccc3)CC2)CCOCC1 [Example 165, 1-benzyl-4-(4-methyltetrahydro-2H-pyran-4-yl)piperidine] |
| < 6.30 | CCC1(C2CCN(Cc3ccccc3)CC2)CCOCC1 [Example 166, 1-benzyl-4-(4-ethyltetrahydro-2H-pyran-4-yl)piperidine] |

| Structure (SMILES) | pKi |
| --- | --- |
| CC(C)CCN1CCN([C@]2(C(=O)c3ccccn3)CCO[C@@H](C)C2)CC1 [Example 169] | > 6.30 |

Same assay, conditions: μ and σ1 dual binding, one class symbol for both Ki-σ1 (human σ1 receptor, A1) and Ki-μ (human μ-opioid receptor, A2)

| Structure (SMILES) | pKi |
| --- | --- |
| C[C@H]1C[C@@](C(=O)c2ccccn2)(N2CCN(CCc3ccccc3F)CC2)CCO1 [Example 170] | > 6.30 |
